Measurements as given in patent publication US12173018B2, “Penicillin-binding protein inhibitors” (priority 2018, dated 2024).
pEC50: −log10 of the molar value. Read-outs that look alike come from different tables or passages of the source.

Assays:
E. coli ATCC 25922 = assay: Broth microdilution MIC, E. coli ATCC 25922; assay type: cell-based; settings: Escherichia coli
Procedure: (§1) To determine the ability of test compounds to potentiate the inhibition of the growth of bacterial strains, classic cell based broth microdilution minimum inhibitory concentration (MIC) assays were employed. MIC assays are performed according to CLSI methods except where otherwise noted (CLSI, 2011 and CLSI, 2009). The reference type strain E. coli ATCC 25922, the wild-type parent strain E. coli AG100, the hyper-permeable E. coli 901C and E. coli D22 and the E. coli AG100A strain lacking the acrAB efflux pump encoding genes were used to determine the ability of the PBP inhibitors to penetrate the outer membrane of gram-negative bacteria and inhibit bacterial growth. […] The P. aeruginosa PAO1, P. aeruginosa ATCC 27853 and A. baumannii ATCC 19606, along with the hyper-permeable P. aeruginosa ATCC 35151 and an engineered efflux pump-compromised strain of P. aeruginosa (ΔmexAB-oprM) were used to determine the ability of PBP inhibitors to penetrate the outer membrane of P. aeruginosa and A. baumannii and assess antibacterial activity against these important gram-negative organisms.
(§2) Briefly, cryo-preserved bacterial cultures of challenge strains are streaked for isolation on appropriate agar medium, in this case Mueller Hinton II agar. Following incubation to allow growth of the colonies, plates are sealed with parafilm and stored refrigerated for up to two weeks. For preparation of assay inoculum and to ensure low variability, at least 5 colonies are picked from the agar plates with an inoculating loop and aseptically transferred to a culture tube containing 3 mL of Mueller-Hinton Broth (supplemented with divalent cations to required levels based on Manufacturers' certification). The broth culture is grown for 3-5 hours at 37° C. with shaking at 200 rpm. Meanwhile, 2-fold serial dilutions of test compounds are conducted in a 96 well plate with a final volume of 75 μL per well at 2-fold the final desired concentration. After the dilution plates are set up the growing cultures are then diluted in a cuvette containing MH II broth and the optical density is measured at 600 nm. The Inoculum is diluted such that 75 μL of this culture in Mueller-Hinton Broth results in a starting bacterial concentration of 5×10^5 CFU/mL when added to the dilution plates. The plates are incubated for 16-20 hours at 37° C. The MIC values are read visually as the lowest concentration well with no bacterial growth.

E. coli PBP3 = E. coli PBP3 (Escherichia coli (strain K12), UniProt P0AD68); assay: E. coli PBP3 Bocillin-FL fluorescence polarization competition binding assay
Source text: To determine the ability of boronic acid-based test PBP inhibitors to bind Penicillin Binding Proteins (PBPs), Bocillin-FL (fluorescently-labeled penicillin V; ThermoFisher Scientific) was used in a fluorescence polarization (FP) competition binding assay to assess inhibitor binding to PBP2, PBP3 or PBP4 from Escherichia coli. PBPs were cloned and purified as described previously (King, D. T, et al., ACS Infectious Diseases 2015, 1, 175-184). To establish assay conditions for competition binding, an enzyme titration/saturation binding experiment was initially performed. Bocillin-FL was prepared at 0.2 μM in a buffer comprised of 50 mM Hepes (pH 8.0), 300 mM NaCl and 5% (v/v) glycerol. Saturation binding was performed by mixing 40 μl of PBP solutions ranging in concentrations from 0-12 μM with 40 μl of the 0.2 μM Bocillin-FL solution, in individual wells of a black 384-well microplate. FP was measured immediately upon mixing (Excitation, 490 nm; Emission, 520 nm; g-factor, 0.96), using a Cytation3 (BioTek) microplate reader and measured continuously for up to 120 minutes. […] Assays (80 μl final volume) were performed with PBPs at a final concentration of 1.5 μM, Bocillin-FL at 0.1 μM and beta-lactam concentrations that ranged from 0-1000 μM. […] Bocillin-FL was added and the FP immediately measured for 60 minutes (90 minutes for PBP2). The beta-lactam potency was reported as the concentration of beta-lactam required to reduce binding of Bocillin-FL by […] (EC50). […] Binding assays for boronic acid PBP inhibitors were performed in an identical fashion.

K. pneumoniae 848844 = assay: microbe, parasite or virus in culture; assay type: cell-based, Klebsiella pneumoniae; settings: Klebsiella pneumoniae; K. pneumoniae 848844 producing SHV-11 and KPC-2; read-out: MIC K. pneumoniae 848844
Procedure: as §1, §2

E. coli AG100A = assay: microbe, parasite or virus in culture; assay type: cell-based; settings: Escherichia coli, read-out: MIC E. coli AG100A
Procedure: as §1, §2

E. coli 901C = assay: microbe, parasite or virus in culture; assay type: cell-based; settings: Escherichia coli; hyper-permeable E. coli 901C, broth microdilution; read-out: MIC E. coli 901C
Procedure: as §1, §2

E. coli D22 = assay: microbe, parasite or virus in culture; assay type: cell-based; settings: Escherichia coli; hyper-permeable E. coli D22, broth microdilution; read-out: MIC E. coli D22
Procedure: as §1, §2

K. pneumoniae UMM = assay: microbe, parasite or virus in culture; assay type: cell-based; settings: Klebsiella pneumoniae; K. pneumoniae UMM producing SHV-5 and KPC-2; read-out: MIC K. pneumoniae UMM
Procedure: as §1, §2

K. pneumoniae SI-117 = assay: microbe, parasite or virus in culture; assay type: cell-based; settings: Klebsiella pneumoniae, SI117, read-out: MIC K. pneumoniae SI-117
Procedure: as §1, §2

E. coli AG100 = assay: Broth microdilution MIC, E. coli AG100 (wild-type parent); assay type: cell-based; settings: Escherichia coli; wild-type parent E. coli AG100, broth microdilution; read-out: MIC E. coli AG100
Procedure: To determine the ability of test compounds to potentiate the inhibition of the growth of bacterial strains, classic cell based broth microdilution minimum inhibitory concentration (MIC) assays were employed.
as §2

[1] = ATCC25922, E. coli ATCC 25922, broth microdilution, read-out: MIC E. coli 25922
[2] = fluorescence polarization competition binding with Bocillin-FL, read-out: E. coli K12 PBP3 Potency
[3] = ATCC25922, read-out: MIC E. coli 25922

Sequence of E. coli PBP3 (P0AD68 whole entry): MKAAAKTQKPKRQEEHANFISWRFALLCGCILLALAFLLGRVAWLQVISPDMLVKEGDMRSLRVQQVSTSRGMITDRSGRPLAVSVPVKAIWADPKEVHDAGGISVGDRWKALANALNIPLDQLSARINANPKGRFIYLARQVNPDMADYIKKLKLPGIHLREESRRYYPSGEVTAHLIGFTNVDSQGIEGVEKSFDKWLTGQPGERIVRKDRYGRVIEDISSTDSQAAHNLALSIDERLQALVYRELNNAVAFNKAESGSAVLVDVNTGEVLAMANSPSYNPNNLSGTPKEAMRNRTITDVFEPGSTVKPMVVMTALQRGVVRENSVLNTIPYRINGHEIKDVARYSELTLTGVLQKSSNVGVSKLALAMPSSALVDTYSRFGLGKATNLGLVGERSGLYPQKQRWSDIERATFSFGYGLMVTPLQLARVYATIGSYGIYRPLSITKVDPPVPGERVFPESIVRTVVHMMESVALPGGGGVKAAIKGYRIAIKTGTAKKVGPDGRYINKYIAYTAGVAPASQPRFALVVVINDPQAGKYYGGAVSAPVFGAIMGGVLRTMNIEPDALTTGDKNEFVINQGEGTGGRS

Structure (SMILES) | MIC (E. coli ATCC 25922; [1]) [µg/mL] | pEC50 (E. coli PBP3) | MIC (K. pneumoniae 848844) [µg/mL] | MIC (E. coli AG100A) [µg/mL] | MIC (E. coli 901C) [µg/mL] | MIC (E. coli D22) [µg/mL] | MIC (K. pneumoniae UMM) [µg/mL] | MIC (K. pneumoniae SI-117) [µg/mL] | MIC (E. coli AG100) [µg/mL] | pEC50 (E. coli PBP3; [2]) | MIC (E. coli ATCC 25922; [3]) [µg/mL]
CCN1CCN(C(=O)N[C@H](C(=O)N[C@H]2Cc3cccc(C(=O)O)c3OB2O)c2ccc(S(N)(=O)=O)c(O)c2)C(=O)C1=O [Example 166, (R)-3-((S)-2-(4-ethyl-2,3-dioxopiperazine-1-carboxamido)-2-(3-hydroxy-4-sulfamoylphenyl)acetamido)-2-hydroxy-3,4-dihydro-2H-benzo[e][1,2]oxaborinine-8-carboxylic acid] | 32 to 64 | 3.30 to 4.52 | > 128 | 2 to 4 | < 0.25 | 2 to 4 | 32 to 64 | > 128 | 32 to 64 | – | –
CCN1CCN(C(=O)N[C@@H](C(=O)N[C@H]2Cc3cccc(C(=O)O)c3OB2O)c2ccc(S(N)(=O)=O)c(O)c2)C(=O)C1=O [Example 167, (R)-3-((R)-2-(4-ethyl-2,3-dioxopiperazine-1-carboxamido)-2-(3-hydroxy-4-sulfamoylphenyl)acetamido)-2-hydroxy-3,4-dihydro-2H-benzo[e][1,2]oxaborinine-8-carboxylic acid] | 32 to 64 | – | > 128 | 2 to 4 | < 0.25 | 2 to 4 | 32 to 64 | > 128 | 32 to 64 | > 4.52 | –
CCN1CCN(C(=O)N[C@H](C(=O)N[C@H]2Cc3cccc(C(=O)O)c3OB2O)c2ccc(S(N)(=O)=O)c(OC)c2)C(=O)C1=O [Example 168, (R)-3-((S)-2-(4-ethyl-2,3-dioxopiperazine-1-carboxamido)-2-(3-methoxy-4-sulfamoylphenyl)acetamido)-2-hydroxy-3,4-dihydro-2H-benzo[e][1,2]oxaborinine-8-carboxylic acid] | > 128 | 3.30 to 4.52 | > 128 | 8 to 16 | 0.5 to 1 | 8 to 16 | > 128 | > 128 | > 128 | – | –
NS(=O)(=O)c1ccc([C@H](NC(=O)N2CCN(CCBr)C(=O)C2=O)C(=O)N[C@H]2Cc3cccc(C(=O)O)c3OB2O)cc1O [Example 171, (R)-3-((S)-2-(4-(2-bromoethyl)-2,3-dioxopiperazine-1-carboxamido)-2-(3-hydroxy-4-sulfamoylphenyl)acetamido)-2-hydroxy-3,4-dihydro-2H-benzo[e][1,2]oxaborinine-8-carboxylic acid] | – | 3.30 to 4.52 | > 128 | 8 to 16 | 0.5 to 1 | 0.5 to 1 | 32 to 64 | > 128 | 32 to 64 | – | 32 to 64
CCN1CCN(C(=O)N[C@H](C(=O)N[C@H]2Cc3cccc(C(=O)O)c3OB2O)c2ncc(O)cc2F)C(=O)C1=O [Example 176, (R)-3-((S)-2-(4-ethyl-2,3-dioxopiperazine-1-carboxamido)-2-(3-fluoro-5-hydroxypyridin-2-yl)acetamido)-2-hydroxy-3,4-dihydro-2H-benzo[e][1,2]oxaborinine-8-carboxylic acid] | 32 to 64 | – | > 128 | 2 to 4 | < 0.25 | 2 to 4 | 32 to 64 | 32 to 64 | 32 to 64 | > 4.52 | –
CCN1CCN(C(=O)NC(C(=O)N[C@H]2Cc3cccc(C(=O)O)c3OB2O)c2ncc(O)cc2C)C(=O)C1=O (stereo partly drawn) [Example 178, (3R)-3-(2-(4-ethyl-2,3-dioxopiperazine-1-carboxamido)-2-(5-hydroxy-3-methylpyridin-2-yl)acetamido)-2-hydroxy-3,4-dihydro-2H-benzo[e][1,2]oxaborinine-8-carboxylic acid] | > 128 | 3.30 to 4.52 | > 128 | 32 to 64 | 8 to 16 | 32 to 64 | > 128 | > 128 | > 128 | – | –
CCN1CCN(C(=O)NC(C(=O)N[C@H]2Cc3cc(F)c(F)c(C(=O)O)c3OB2O)c2ccc(O)c(O)c2Cl)C(=O)C1=O (stereo partly drawn) [Example 180, (3R)-3-(2-(2-chloro-3,4-dihydroxyphenyl)-2-(4-ethyl-2,3-dioxopiperazine-1-carboxamido)acetamido)-6,7-difluoro-2-hydroxy-3,4-dihydro-2H-benzo[e][1,2]oxaborinine-8-carboxylic acid] | 8 to 16 | – | 2 to 4 | 0.5 to 1 | 0.5 to 1 | 2 to 4 | 0.5 to 1 | 2 to 4 | 2 to 4 | > 4.52 | –
CCOC(=O)c1cccc2c1OB(O)[C@@H](NC(=O)C(NC(=O)N1CCN(CC)C(=O)C1=O)c1ncc(O)cc1F)C2 (stereo partly drawn) [Example 195, Ethyl (3R)-3-(2-(4-ethyl-2,3-dioxopiperazine-1-carboxamido)-2-(3-fluoro-5-hydroxypyridin-2-yl)acetamido)-2-hydroxy-3,4-dihydro-2H-benzo[e][1,2]oxaborinine-8-carboxylate] | > 128 | – | > 128 | > 128 | 32 to 64 | > 128 | > 128 | > 128 | > 128 | < 3.30 | –
CCN1CCN(C(=O)NC(C(=O)N[C@H]2Cc3cccc(C(=O)O)c3OB2O)c2ccc(OCCCN)cc2F)C(=O)C1=O (stereo partly drawn) [Example 209, (3R)-3-(2-(4-(3-aminopropoxy)-2-fluorophenyl)-2-(4-ethyl-2,3-dioxopiperazine-1-carboxamido)acetamido)-2-hydroxy-3,4-dihydro-2H-benzo[e][1,2]oxaborinine-8-carboxylic acid] | 8 to 16 | 3.30 to 4.52 | > 128 | 0.5 to 1 | < 0.25 | 2 to 4 | 32 to 64 | > 128 | 32 to 64 | – | –
O=C(O)c1cccc2c1OB(O)[C@@H](NC(=O)C(NC(=O)c1c[nH]ccc1=O)c1ncc(O)cc1F)C2 (stereo partly drawn) [Example 219, (3R)-3-(2-(3-fluoro-5-hydroxypyridin-2-yl)-2-(4-oxo-1,4-dihydropyridine-3-carboxamido)acetamido)-2-hydroxy-3,4-dihydro-2H-benzo[e][1,2]oxaborinine-8-carboxylic acid] | – | > 4.52 | > 128 | 8 to 16 | 2 to 4 | 8 to 16 | 32 to 64 | 32 to 64 | > 128 | – | > 128
